According to ChEMBL document CHEMBL1201862, “PubChem BioAssay data set” (2004):
Calls of active or inactive are those of the source. Unless noted, no cut-off for these calls is given here.

Experiments:
[1] = target: T1, Tyrosine-protein phosphatase non-receptor type 7 (Homo sapiens, UniProt P35236); experiment: redox-dependent HePTP inhibition, mechanism study, biochemical, fluorescence (AID 2068); assay type: functional
T1 sequence (P35236 whole entry): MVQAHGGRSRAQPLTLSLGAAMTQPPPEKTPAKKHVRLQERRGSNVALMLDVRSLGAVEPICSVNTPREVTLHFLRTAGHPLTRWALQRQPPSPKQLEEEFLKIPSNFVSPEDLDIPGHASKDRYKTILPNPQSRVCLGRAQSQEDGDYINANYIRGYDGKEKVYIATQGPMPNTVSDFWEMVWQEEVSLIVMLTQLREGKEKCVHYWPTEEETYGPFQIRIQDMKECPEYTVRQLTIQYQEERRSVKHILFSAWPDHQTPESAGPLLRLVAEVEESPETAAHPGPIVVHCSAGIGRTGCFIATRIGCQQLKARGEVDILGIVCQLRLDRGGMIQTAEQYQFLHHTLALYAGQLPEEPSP

[2] = target: T2, Dual specificity protein phosphatase 6 (Rattus norvegicus, UniProt Q64346); assay type: functional;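 note: confirmatory in vitro dose-response testing of MKP-3 inhibition; recombinant His-tagged MKP-3 made in E. coli BL21 with OMFP substrate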
T2 sequence (Q64346 whole entry): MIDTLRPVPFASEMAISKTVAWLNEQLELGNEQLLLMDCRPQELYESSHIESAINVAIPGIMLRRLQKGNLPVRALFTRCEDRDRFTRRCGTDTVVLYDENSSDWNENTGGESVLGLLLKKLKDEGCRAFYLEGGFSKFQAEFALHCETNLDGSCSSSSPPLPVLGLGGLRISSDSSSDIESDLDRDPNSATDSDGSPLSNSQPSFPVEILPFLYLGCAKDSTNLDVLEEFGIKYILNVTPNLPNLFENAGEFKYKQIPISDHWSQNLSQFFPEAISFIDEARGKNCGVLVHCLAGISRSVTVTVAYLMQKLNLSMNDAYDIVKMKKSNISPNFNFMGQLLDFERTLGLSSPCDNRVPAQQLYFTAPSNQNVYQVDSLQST

[3] = target: T3, Tyrosine-protein phosphatase non-receptor type 22 (Homo sapiens, UniProt Q9Y2R2); experiment: LYP1 Fluorescent Assay using OMFP substrate for In Vitro dose response studies. [Related pubchem assays (depositor defined):AID1779, AID1784, AID435024]
T3 sequence (Q9Y2R2 whole entry): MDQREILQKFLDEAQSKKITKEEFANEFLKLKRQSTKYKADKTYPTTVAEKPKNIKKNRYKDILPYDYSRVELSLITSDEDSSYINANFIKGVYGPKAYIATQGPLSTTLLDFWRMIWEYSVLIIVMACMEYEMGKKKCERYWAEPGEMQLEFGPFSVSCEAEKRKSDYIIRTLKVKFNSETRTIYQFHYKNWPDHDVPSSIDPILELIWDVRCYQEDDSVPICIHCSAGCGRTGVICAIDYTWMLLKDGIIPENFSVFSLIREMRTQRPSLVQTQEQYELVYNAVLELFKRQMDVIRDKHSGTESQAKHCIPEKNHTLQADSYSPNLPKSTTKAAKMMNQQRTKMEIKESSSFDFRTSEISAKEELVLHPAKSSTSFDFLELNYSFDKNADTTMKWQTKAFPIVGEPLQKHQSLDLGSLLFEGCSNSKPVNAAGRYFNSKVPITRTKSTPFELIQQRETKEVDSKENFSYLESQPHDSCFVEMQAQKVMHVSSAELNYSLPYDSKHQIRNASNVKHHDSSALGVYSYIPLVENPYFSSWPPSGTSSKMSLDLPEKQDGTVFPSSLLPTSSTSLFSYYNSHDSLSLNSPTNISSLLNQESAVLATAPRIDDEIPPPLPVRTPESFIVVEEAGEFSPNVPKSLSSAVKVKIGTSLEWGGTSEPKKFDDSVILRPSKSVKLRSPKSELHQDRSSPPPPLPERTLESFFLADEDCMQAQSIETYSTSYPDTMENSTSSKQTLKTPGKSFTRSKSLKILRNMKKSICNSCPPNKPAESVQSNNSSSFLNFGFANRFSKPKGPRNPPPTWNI

[4] = target: T1, Tyrosine-protein phosphatase non-receptor type 7; experiment: HTS HePTP Fluorescent Assay using OMFP substrate for In Vitro dose response studies. [Related pubchem assays (depositor defined):AID1059, AID1077, AID1784, AID2068, AID2085, AID435032, AID521]; assay type: functional
[5] = target: T4, Tyrosyl-DNA phosphodiesterase 2 (Homo sapiens, UniProt O95551); experiment: human TDP2 enzyme inhibitors, dose response, biochemical, epi absorbance, IC50 (AID 743297)
T4 sequence (O95551 whole entry): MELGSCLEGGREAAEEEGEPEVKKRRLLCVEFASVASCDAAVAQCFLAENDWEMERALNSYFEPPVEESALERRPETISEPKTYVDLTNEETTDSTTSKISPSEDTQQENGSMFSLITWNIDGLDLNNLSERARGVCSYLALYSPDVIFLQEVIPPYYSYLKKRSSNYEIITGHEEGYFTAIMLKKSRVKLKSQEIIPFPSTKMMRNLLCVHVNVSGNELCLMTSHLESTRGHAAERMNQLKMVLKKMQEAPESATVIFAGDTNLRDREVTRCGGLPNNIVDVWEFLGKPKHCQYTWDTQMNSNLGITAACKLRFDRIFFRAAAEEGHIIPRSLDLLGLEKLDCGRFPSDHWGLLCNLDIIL

[6] = target: Voltage-dependent T-type calcium channel subunit alpha-1H (Homo sapiens, UniProt O95180); assay type: functional;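 note: channel activity triggered by adding a high calcium stimulation buffer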
Voltage-dependent T-type calcium channel subunit alpha-1H, sequence (O95180 whole entry): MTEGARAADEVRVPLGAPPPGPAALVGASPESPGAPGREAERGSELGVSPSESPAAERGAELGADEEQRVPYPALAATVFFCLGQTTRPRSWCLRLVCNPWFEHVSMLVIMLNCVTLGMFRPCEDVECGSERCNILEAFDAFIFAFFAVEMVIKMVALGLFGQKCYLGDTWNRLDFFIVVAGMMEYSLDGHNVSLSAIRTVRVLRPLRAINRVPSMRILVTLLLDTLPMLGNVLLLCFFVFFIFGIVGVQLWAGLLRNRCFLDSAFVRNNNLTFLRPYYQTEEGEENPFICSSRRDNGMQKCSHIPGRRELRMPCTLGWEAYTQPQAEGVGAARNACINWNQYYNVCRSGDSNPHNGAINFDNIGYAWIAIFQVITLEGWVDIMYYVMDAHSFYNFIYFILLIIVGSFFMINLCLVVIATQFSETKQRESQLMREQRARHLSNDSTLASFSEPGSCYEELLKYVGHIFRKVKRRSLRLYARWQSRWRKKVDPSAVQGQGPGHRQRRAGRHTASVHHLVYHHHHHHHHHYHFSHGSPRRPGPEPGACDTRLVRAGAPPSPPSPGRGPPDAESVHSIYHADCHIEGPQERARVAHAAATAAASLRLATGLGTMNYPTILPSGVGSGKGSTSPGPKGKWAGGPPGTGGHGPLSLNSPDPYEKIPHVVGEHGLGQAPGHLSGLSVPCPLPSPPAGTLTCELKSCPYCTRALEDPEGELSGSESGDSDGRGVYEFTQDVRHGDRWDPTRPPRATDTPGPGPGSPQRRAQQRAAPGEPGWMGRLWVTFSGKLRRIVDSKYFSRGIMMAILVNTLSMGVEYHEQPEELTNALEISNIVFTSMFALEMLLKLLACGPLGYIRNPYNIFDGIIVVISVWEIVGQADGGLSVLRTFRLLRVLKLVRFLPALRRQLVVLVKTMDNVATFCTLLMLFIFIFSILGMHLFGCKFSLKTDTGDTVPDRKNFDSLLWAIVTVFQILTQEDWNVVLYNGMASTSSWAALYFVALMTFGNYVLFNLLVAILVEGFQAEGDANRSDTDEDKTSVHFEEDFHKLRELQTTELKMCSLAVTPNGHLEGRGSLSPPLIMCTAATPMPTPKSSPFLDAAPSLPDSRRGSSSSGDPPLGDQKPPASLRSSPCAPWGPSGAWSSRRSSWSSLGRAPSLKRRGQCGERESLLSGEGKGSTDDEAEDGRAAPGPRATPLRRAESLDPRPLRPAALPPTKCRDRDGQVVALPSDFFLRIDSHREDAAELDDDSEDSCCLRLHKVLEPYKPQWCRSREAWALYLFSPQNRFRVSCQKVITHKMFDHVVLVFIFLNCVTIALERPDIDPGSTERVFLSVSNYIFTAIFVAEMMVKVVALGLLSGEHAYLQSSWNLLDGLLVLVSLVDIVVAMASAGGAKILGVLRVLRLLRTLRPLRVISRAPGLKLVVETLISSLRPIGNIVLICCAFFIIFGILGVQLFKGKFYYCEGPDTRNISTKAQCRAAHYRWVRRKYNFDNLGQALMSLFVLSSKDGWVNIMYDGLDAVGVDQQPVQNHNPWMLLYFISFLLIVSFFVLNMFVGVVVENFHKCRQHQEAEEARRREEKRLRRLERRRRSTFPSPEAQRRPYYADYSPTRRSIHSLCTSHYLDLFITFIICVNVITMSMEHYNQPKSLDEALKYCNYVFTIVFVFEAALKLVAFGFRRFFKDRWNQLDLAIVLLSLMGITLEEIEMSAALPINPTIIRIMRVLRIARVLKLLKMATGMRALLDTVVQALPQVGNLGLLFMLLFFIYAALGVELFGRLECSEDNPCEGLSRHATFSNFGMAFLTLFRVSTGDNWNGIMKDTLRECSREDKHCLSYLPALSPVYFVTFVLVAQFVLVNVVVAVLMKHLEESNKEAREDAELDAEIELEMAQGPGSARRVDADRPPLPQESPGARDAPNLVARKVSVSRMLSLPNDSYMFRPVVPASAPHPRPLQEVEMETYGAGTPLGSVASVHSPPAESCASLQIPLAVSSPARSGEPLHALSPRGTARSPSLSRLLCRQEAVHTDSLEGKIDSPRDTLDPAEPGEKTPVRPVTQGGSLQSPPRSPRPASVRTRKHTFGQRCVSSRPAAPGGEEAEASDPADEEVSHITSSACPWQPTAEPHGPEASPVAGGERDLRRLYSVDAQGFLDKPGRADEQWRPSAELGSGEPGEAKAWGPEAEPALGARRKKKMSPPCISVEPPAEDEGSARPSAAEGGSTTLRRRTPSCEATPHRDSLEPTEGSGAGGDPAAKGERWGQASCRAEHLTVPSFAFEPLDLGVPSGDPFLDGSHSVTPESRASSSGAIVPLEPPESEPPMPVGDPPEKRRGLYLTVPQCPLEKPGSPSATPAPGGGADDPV

CCOC(=O)c1sc2nc3c(SCC(=O)O)cc(C(=O)c4ccccc4O)cn3c(=O)c2c1C
IC50 [1]: 0.105 µM (active) | IC50 [2]: 57.3 µM (active) | IC50 [3]: > 99 µM (inactive) | IC50 [4]: > 99 µM (inactive)

C=CCn1c(NC(=O)c2ccccc2Cl)c(C#N)c2nc3ccccc3nc21
IC50 [5]: > 128 µM (inactive) | EC50 [6]: 4.23 µM (active)
